Results: paper PMC3117731, “A systems biology approach to dynamic modeling and inter-subject variability of statin pharmacokinetics in human hepatocytes” (BMC Systems Biology, 2011)
Several values for one entry are separate records, joined by “and”; a condition that tells them apart may be missing. Equal values may be shown once. Read-outs that look alike come from different tables or passages of the source.

Experiments:
[1] = test system: primary human hepatocytes; assay: Apparent (lumped active transport and passive diffusion) import and export in primary human hepatocytes; assay type: in vitro ADME
Excerpt: Thus, in the following, mechanisms of active transport and passive diffusion are lumped, resulting in the apparent transport rate for import,(12) [drawing 22]
and in the apparent transport rate for export(13) [drawing 23]
described by the product of apparent rate constant κ im/ex of import or export and extra- or intracellular concentration [drawing 24] , respectively (Figure 3). Consequently, the rate constants κ of import and export are set individually, and were to be estimated in the optimization procedure.

CYP3A4 = CYP3A4 (Homo sapiens, UniProt P08684)
CYP3A4, sequence (P08684 2-503 limits assumed): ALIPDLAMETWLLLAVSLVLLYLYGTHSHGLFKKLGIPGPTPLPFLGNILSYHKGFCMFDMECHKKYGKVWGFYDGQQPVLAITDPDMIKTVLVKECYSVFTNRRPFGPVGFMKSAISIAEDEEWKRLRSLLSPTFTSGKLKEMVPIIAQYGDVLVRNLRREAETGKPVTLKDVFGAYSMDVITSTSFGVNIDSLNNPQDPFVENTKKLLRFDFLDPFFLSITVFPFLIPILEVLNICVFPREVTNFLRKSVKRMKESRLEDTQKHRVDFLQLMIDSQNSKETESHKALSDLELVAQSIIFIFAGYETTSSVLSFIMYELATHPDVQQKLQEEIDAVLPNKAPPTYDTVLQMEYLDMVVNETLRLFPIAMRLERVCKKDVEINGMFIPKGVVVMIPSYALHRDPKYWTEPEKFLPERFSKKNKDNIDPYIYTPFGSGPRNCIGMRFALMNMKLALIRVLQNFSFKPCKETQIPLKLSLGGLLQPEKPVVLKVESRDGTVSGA

[2] = test system: primary human hepatocytes; assay: Time-series experiment of atorvastatin biotransformation in primary human hepatocytes (extra- and intracellular metabolites by LC-MS-MS, model fit); assay type: in vitro ADME; details: individual 1; 10 μM AS
Procedure: Hepatocytes were cultured on collagen gel precoated 6-well plates at a density of 1.5·10^6 cells/well. Cells were allowed to attach to the collagen layer. After transport, culture media was disposed and attached cells were cultured 24 h at 37°C in a humidified chamber with 95%/5% air/CO2 in serum-free medium WME, supplemented with albumin (0.1% (v/v)), penicillin/streptomycin (100 U/ml), stabilized L-glutamine (2 mM), dexamethasone dihydrogenphosphate (0.025% (v/v)) and ITS-X (5 mg insulin, 3.35 μg natrium-selenit, 2.75 mg transferrin and 1 mg ethanolamine), further named SFM.
At specified time-points, three wells were further treated for the preparation of samples for the measurement of extracellular and intracellular metabolites, respectively. SFM media was collected and 50 μL formic acid and deuterated internal standard was added for the further measurement of extracellular metabolites. Cells were harvested in pre-cooled albumin-free SFM, disrupted by freeze/thaw and ultra-sonification and centrifuged. The supernatant was used for the determination of intracellular metabolites.
MS-MS analysis was performed on an Esquire HCT ultra ion trap mass spectrometer (Bruker Daltonics, Bremen, Germany) coupled to an HPLC 1100-System (Agilent, Waldbronn, Germany) consisting of binary pump G1312A, degasser G1379A, well-plate sampler G1367A and column thermostat G1330B. […] The following parameters were applied: nebulizer 45 psi, dry gas 10 l/min, dry temperature 300°C, capillary 4100 V, scan range 200 - 600 m/z.

PON enzymes = assay: PON mediated lactone hydrolysis, rate constants estimated in the optimization procedure; assay type: in vitro ADME, human; details: nominal value from optimization
Excerpt: The lactone metabolites are either hydrolyzed chemically to the respective acid metabolites inside (c) or outside (m) the cell, or enzymatically by the contribution of PON enzymes inside the cell. Both reactions are described as first order kinetics(4) [drawing 6]
Therefore, maximal rate constants r max of CYP3A4 hydroxylation and UGT1A3 lactonization were predicted for individual 2 and 3 via the relative abundance approach (equation (11)) using the r max -parameters of individual 1 (Table 3) and the protein concentrations observed on the primary human hepatocytes (Table 4). These parameters were then fixed in the optimization. Further, the rate constants k of PON mediated lactone hydrolysis of individual 2 and 3 were estimated in the optimization procedure.

[3] = parameters: method as in PMID 8272408; details: estimated from experimental observations; assumed to be same for ASLpOH and ASLoOH; cited from earlier work
[4] = Individual 1, nominal value from optimization
[5] = Individual 2, nominal value from optimization
[6] = Individual 3, nominal value from optimization
[7] = Individual 1, nominal value from optimization, per ml intracellular volume
[8] = Individual 2, predicted via relative abundance approach from individual 1 and CYP3A4 protein concentration

| Compound | κex (apparent rate constant of export) [1, 4] | κex (apparent rate constant of export) [1, 5] | κex (apparent rate constant of export) [1, 6] | rmax,3A4 (maximal rate of CYP3A4 hydroxylation to the labelled metabolite) (CYP3A4; [7]) | rmax,3A4 (maximal rate of CYP3A4 hydroxylation to the labelled metabolite) (CYP3A4; [8]) | ratio of intracellular AUC 0-600 min to extracellular AUC 0-600 min [2] | ratio of intracellular c max to extracellular c max [2] | κim (apparent rate constant of import) [1, 4] | κim (apparent rate constant of import) [1, 5] | κim (apparent rate constant of import) [1, 6] | κPON (rate constant of PON mediated lactone hydrolysis) (PON enzymes; Individual 1) | κPON (rate constant of PON mediated lactone hydrolysis) (PON enzymes; Individual 2) | κPON (rate constant of PON mediated lactone hydrolysis) (PON enzymes; Individual 3) | kCR (rate constant of spontaneous hydrolysis of the lactone) [3] |
| --- | --- | --- | --- | --- | --- | --- | --- | --- | --- | --- | --- | --- | --- | --- |
| CC(C)c1c(C(=O)Nc2ccc(O)cc2)c(-c2ccccc2)c(-c2ccc(F)cc2)n1CC[C@@H]1C[C@@H](O)CC(=O)O1 [ASLpOH, para-hydroxy-atorvastatin lactone] | 1.13 µL/min and 33.7 µL/min | 1.01 µL/min and 7.24 µL/min | 0.59 µL/min and 8.59 µL/min | 1228 pmol/min/mL | 731 pmol/min/mL | 38.2 | 34.5 | – | – | – | – | – | – | – |
| CC(C)c1c(C(=O)Nc2ccccc2O)c(-c2ccccc2)c(-c2ccc(F)cc2)n1CC[C@@H]1C[C@@H](O)CC(=O)O1 [ASLoOH, ortho-hydroxy-atorvastatin lactone] | 2.67 µL/min | 86.3 µL/min | 0.77 µL/min | 2756 pmol/min/mL | 1640 pmol/min/mL | – | – | 26.1 µL/min | 530 µL/min | 2.43 µL/min | – | – | – | – |
| hydroxy-atorvastatin lactones (para- and ortho-) [ASLOH] | – | – | – | – | – | – | – | – | – | – | 280 10^-3 min^-1 | 545 10^-3 min^-1 | 82.9 10^-3 min^-1 | – |
| CC(C)c1c(C(=O)Nc2ccccc2)c(-c2ccccc2)c(-c2ccc(F)cc2)n1CC[C@@H]1C[C@@H](O)CC(=O)O1 [ASL, atorvastatin lactone] | 21.8 µL/min | 2.48 µL/min | 10.5 µL/min | – | – | – | – | 275 µL/min | 25.8 µL/min | 82.7 µL/min | 308 10^-3 min^-1 | 99.2 10^-3 min^-1 | 0.00 10^-3 min^-1 | 0.0025 min⁻¹ |

The next lines start with results.

| κex (apparent rate constant of export) [1, 4] | κex (apparent rate constant of export) [1, 5] | κex (apparent rate constant of export) [1, 6] | rmax,3A4 (maximal rate of CYP3A4 hydroxylation to the labelled metabolite) (CYP3A4; [7]) | rmax,3A4 (maximal rate of CYP3A4 hydroxylation to the labelled metabolite) (CYP3A4; [8]) | ratio of intracellular AUC 0-600 min to extracellular AUC 0-600 min [2] | ratio of intracellular c max to extracellular c max [2] | κim (apparent rate constant of import) [1, 4] | κim (apparent rate constant of import) [1, 5] | κim (apparent rate constant of import) [1, 6] | Compound | κPON (rate constant of PON mediated lactone hydrolysis) (PON enzymes; Individual 1) | κPON (rate constant of PON mediated lactone hydrolysis) (PON enzymes; Individual 2) | κPON (rate constant of PON mediated lactone hydrolysis) (PON enzymes; Individual 3) | kCR (rate constant of spontaneous hydrolysis of the lactone) [3] |
| --- | --- | --- | --- | --- | --- | --- | --- | --- | --- | --- | --- | --- | --- | --- |
| 1.60 µL/min | 3.62 µL/min | 0.91 µL/min | 3345 pmol/min/mL | 1991 pmol/min/mL | 4.5 | 2.5 | 0.39 µL/min | 0.22 µL/min | 0.00 µL/min | CC(C)c1c(C(=O)Nc2ccccc2O)c(-c2ccccc2)c(-c2ccc(F)cc2)n1CCC(O)CC(O)CC(=O)O (stereo not shown) [ASoOH, ortho-hydroxy-atorvastatin acid] | – | – | – | – |
| 0.80 µL/min | 1.25 µL/min | 0.52 µL/min | 1108 pmol/min/mL | 660 pmol/min/mL | – | – | 3.96 µL/min | 2.01 µL/min | 2.53 µL/min | CC(C)c1c(C(=O)Nc2ccc(O)cc2)c(-c2ccccc2)c(-c2ccc(F)cc2)n1CC[C@@H](O)C[C@@H](O)CC(=O)O [ASpOH, para-hydroxy-atorvastatin acid] | – | – | – | – |
